Experimental data reported in article PMC10126264, “Synergistic effect and antibiofilm activity of the antimicrobial peptide K11 with conventional antibiotics against multidrug-resistant and extensively drug-resistant Klebsiella pneumoniae” (Frontiers in Cellular and Infection Microbiology, 2023).
Converted amounts (≈) assume the structure as drawn. Where two headings read alike, the source gives them in different places. Residues, ends and D or L forms follow the SMILES beside them.

What was measured:
[1] = tested on: K. pneumoniae ATCC 70063
Description: The log-phase cultures were adjusted to 0.5 McFarland standard and diluted 1:100 in CAMHB to provide the density of 10^6 CFU/mL. Consequently, 50 µL of diluted bacterial suspension was added to wells containing 50 µL of peptide solution, followed by incubation for 20-24 h at 37°C. […] To evaluate MBC, a volume of 10 μL was taken from each well with no visible growth, inoculated on Mueller-Hinton agar (MHA) plates, and incubated at 37°C. The MBC was defined as the lowest concentration of antimicrobials that killed at least 99.9% of the initial inoculums ([Clinical and Laboratory Standards Institute, 1999]).

[2] = tested on: K. pneumoniae ATCC BAA-1706
Description: The effects of various cations and serum on the antimicrobial activity of K11 were investigated against K. pneumoniae ATCC 70063 and K. pneumoniae ATCC BAA-1706 by the MIC assay, as described above. For salt stability, 2 mg/mL of K11 was dissolved in solutions containing different salts at their physiological concentrations; NaCl (100, 150, and 200 mM), MgCl2 (0.5, 1 and 2 mM), and FeCl3 (1, 4, and 8 mM), then incubated for 1 h at 37°C. Subsequently, serially 2-fold diluted K11 solutions were prepared in CAMHB, and aliquots of each peptide solution were added to a 96-well plate. An equal volume of bacterial suspension was added, and the mixtures were incubated at 37°C for 20-24 h ([Ko et al., 2019]). […] The antimicrobial activity was determined by measuring the MICs.

[3] = tested on: K. pneumoniae ATCC BAA-1706; remark: listed apart in the source
Description: (§1) The temperature and pH stabilities of K11 were evaluated by the MIC assay, as mentioned above. To assess the thermal stability, Aliquots of 2 mg/mL of K11 in sterile deionized water were incubated for 1 h at 25°C, 37°C, 50°C, 70°C, and 90°C. Then, a series of 2-fold dilutions of K11 were prepared in CAMHB, 50 µL of each peptide solution was transferred to the well of a 96-well microplate. An equal volume of K. pneumoniae ATCC 70063 or K. pneumoniae ATCC BAA-1706 (10^6 CFU/mL) suspension was added, and the mixture was incubated at 37°C for 20-24 h ([Li et al., 2021]). To examine the pH stability, the pH was adjusted to range from 2.0 to 10.0 with the following 100 mM buffers: glycine-HCl buffer (pH 2.0), sodium acetate buffer (pH 4.0), sodium phosphate buffer (pH 6.0), Tris-HCl buffer (pH 8.0), and glycine-NaOH buffer (pH 10.0). Then, 2 mg/mL of K11 was prepared in buffers with different pH values (pH 2.0-10.0) and incubated for 1 h at 37°C. Afterward, the pH of the reaction solution was neutralized by HCl or NaOH to terminate the reaction. The serially diluted peptide solutions were conducted, then treated against the tested strains, and the mixtures were incubated at 37°C for 20-24 h ([Cao et al., 2015]; [Zong et al., 2016]). The MICs were observed.

[4] = tested on: K. pneumoniae ATCC 70063; remark: listed apart in the source
Description: as §1

[5] = K11 2 mg/mL in 100 mM Tris-HCl buffer pH 8.0, 1 h at 37°C, neutralized, then MIC
[6] = K11 2 mg/mL in 100 mM glycine-HCl buffer pH 2.0, 1 h at 37°C, neutralized, then MIC
[7] = K11 2 mg/mL in 100 mM glycine-NaOH buffer pH 10.0, 1 h at 37°C, neutralized, then MIC
[8] = K11 2 mg/mL in 100 mM sodium acetate buffer pH 4.0, 1 h at 37°C, neutralized, then MIC
[9] = K11 2 mg/mL in 100 mM sodium phosphate buffer pH 6.0, 1 h at 37°C, neutralized, then MIC
[10] = K11 2 mg/mL in sterile deionized water incubated 1 h at 25°C (control), then MIC in CAMHB
[11] = K11 2 mg/mL in sterile deionized water incubated 1 h at 37°C, then MIC in CAMHB
[12] = K11 2 mg/mL in sterile deionized water incubated 1 h at 50°C, then MIC in CAMHB
[13] = K11 2 mg/mL in sterile deionized water incubated 1 h at 70°C, then MIC in CAMHB
[14] = K11 2 mg/mL in sterile deionized water incubated 1 h at 90°C, then MIC in CAMHB

Structure (SMILES): CC[C@H](C)[C@H](NC(=O)[C@H](Cc1ccccc1)NC(=O)[C@H](CO)NC(=O)[C@H](CCCCN)NC(=O)[C@H](Cc1c[nH]c2ccccc12)NC(=O)[C@@H](N)CCCCN)C(=O)N[C@@H](CCCCN)C(=O)N[C@@H](CCCCN)C(=O)N[C@@H](CC(C)C)C(=O)N[C@H](C(=O)N[C@@H](CCCCN)C(=O)N[C@@H](CCCCN)C(=O)N[C@@H](Cc1ccccc1)C(=O)N[C@@H](CC(C)C)C(=O)N[C@@H](Cc1c[nH]cn1)C(=O)N[C@@H](CO)C(=O)N[C@@H](C)C(=O)N[C@@H](CCCCN)C(=O)N[C@@H](CCCCN)C(=O)N[C@@H](Cc1ccccc1)C(N)=O)[C@@H](C)O [K11] (H-KWKSFIKKLTKKFLHSAKKF-NH2)
- MIC ([1]; broth microdilution in CAMHB, 20-24 h at 37°C): 4 µg/mL (≈ 1.6 µM)
- MBC ([1]; wells with no visible growth plated on MHA, 37°C, kills at least 99.9% of inoculum): 4 µg/mL (≈ 1.6 µM)
- Antimicrobial activity MIC ([2]; Control, salt concentration 0): 2 µg/mL
- Antimicrobial activity MIC ([2]; K11 2 mg/mL in FeCl3 1 µM, 1 h at 37°C, then MIC in CAMHB): 2 µg/mL
- Antimicrobial activity MIC ([2]; K11 2 mg/mL in FeCl3 4 µM, 1 h at 37°C, then MIC in CAMHB): 2 µg/mL
- Antimicrobial activity MIC ([2]; K11 2 mg/mL in FeCl3 8 µM, 1 h at 37°C, then MIC in CAMHB): 2 µg/mL
- Antimicrobial activity MIC ([2]; K11 2 mg/mL in MgCl2 0.5 mM, 1 h at 37°C, then MIC in CAMHB): 2 µg/mL
- Antimicrobial activity MIC ([2]; K11 2 mg/mL in MgCl2 1 mM, 1 h at 37°C, then MIC in CAMHB): 2 µg/mL
- Antimicrobial activity MIC ([2]; K11 2 mg/mL in MgCl2 2 mM, 1 h at 37°C, then MIC in CAMHB): 2 µg/mL
- Antimicrobial activity MIC ([2]; K11 2 mg/mL in NaCl 100 mM, 1 h at 37°C, then MIC in CAMHB): 2 µg/mL
- Antimicrobial activity MIC ([2]; K11 2 mg/mL in NaCl 150mM, 1 h at 37°C, then MIC in CAMHB): 4 µg/mL
- Antimicrobial activity MIC ([2]; K11 2 mg/mL in NaCl 200 mM, 1 h at 37°C, then MIC in CAMHB): 4 µg/mL
- Antimicrobial activity MIC [3, 5]: 2 µg/mL
- Antimicrobial activity MIC [3, 6]: 2 µg/mL
- Antimicrobial activity MIC [3, 7]: 2 µg/mL
- Antimicrobial activity MIC [3, 8]: 2 µg/mL
- Antimicrobial activity MIC [3, 9]: 2 µg/mL
- Antimicrobial activity MIC [3, 10]: 2 µg/mL
- Antimicrobial activity MIC [3, 11]: 2 µg/mL
- Antimicrobial activity MIC [3, 12]: 2 µg/mL
- Antimicrobial activity MIC [3, 13]: 2 µg/mL
- Antimicrobial activity MIC [3, 14]: 2 µg/mL
- Antimicrobial activity MIC ([3]; pH 7 (control)): 2 µg/mL
- Antimicrobial activity MIC [4, 5]: 4 µg/mL
- Antimicrobial activity MIC [4, 6]: 4 µg/mL
- Antimicrobial activity MIC [4, 7]: 4 µg/mL
- Antimicrobial activity MIC [4, 8]: 4 µg/mL
- Antimicrobial activity MIC [4, 9]: 4 µg/mL
- Antimicrobial activity MIC [4, 10]: 4 µg/mL
- Antimicrobial activity MIC [4, 11]: 4 µg/mL
- Antimicrobial activity MIC [4, 12]: 4 µg/mL
- Antimicrobial activity MIC [4, 13]: 4 µg/mL
- Antimicrobial activity MIC [4, 14]: 4 µg/mL
- Antimicrobial activity MIC ([4]; pH 7 (control)): 4 µg/mL
